In patent US5591714A, “Derivatives of A82846” (priority 1994, dated 1997):

Columns and labels:
Assay in all cases: In vivo activity, experimentally infected mice (ED50)
Streptococcus pneumoniae = Streptococcus pneumoniae infection; doses administered subcutaneously to mice 1 and 4 hours postinfection
Streptococcus pyogenes = Streptococcus pyogenes infection; doses administered subcutaneously to mice 1 and 4 hours postinfection
Staphylococcus aureus = Staphylococcus aureus infection; doses administered subcutaneously to mice 1 and 4 hours postinfection

Row | Compound | ED50 (Streptococcus pneumoniae) | ED50 (Streptococcus pyogenes) | ED50 (Staphylococcus aureus)
1 | CCCCCCCCN(C)[C@H](CC(C)C)C(=O)N[C@H]1C(=O)N[C@@H](CC(N)=O)C(=O)N[C@H]2C(=O)N[C@H]3C(=O)N[C@H](C(=O)N[C@H](C(=O)O)c4cc(O)cc(O)c4-c4cc3ccc4O)[C@H](O[C@H]3C[C@](C)(N)[C@@H](O)[C@H](C)O3)c3ccc(cc3)Oc3cc2cc(c3O[C@@H]2O[C@H](CO)[C@@H](O)[C@H](O)[C@H]2O[C@H]2C[C@](C)(N)[C@@H](O)[C@H](C)O2)Oc2ccc(cc2Cl)[C@H]1O [Compound 2] | 1.25 mg/kg/2 | 0.79 mg/kg/2 | > 5.0 mg/kg/2
2 | CCCCCN[C@@]1(C)C[C@H](O[C@H]2[C@H](Oc3c4cc5cc3Oc3ccc(cc3Cl)[C@@H](O)[C@@H](NC(=O)[C@@H](CC(C)C)NC)C(=O)N[C@@H](CC(N)=O)C(=O)N[C@H]5C(=O)N[C@H]3C(=O)N[C@H](C(=O)N[C@H](C(=O)O)c5cc(O)cc(O)c5-c5cc3ccc5O)[C@H](O[C@H]3C[C@](C)(N)[C@@H](O)[C@H](C)O3)c3ccc(cc3)O4)O[C@H](CO)[C@@H](O)[C@@H]2O)O[C@@H](C)[C@@H]1O [Compound 5] | 0.1 mg/kg/2 | 0.17 mg/kg/2 | 0.92 mg/kg/2
3 | CCCCCN[C@@]1(C)C[C@H](O[C@H]2[C@H](Oc3c4cc5cc3Oc3ccc(cc3Cl)[C@@H](O)[C@@H](NC(=O)[C@@H](CC(C)C)N(C)CCCCC)C(=O)N[C@@H](CC(N)=O)C(=O)N[C@H]5C(=O)N[C@H]3C(=O)N[C@H](C(=O)N[C@H](C(=O)O)c5cc(O)cc(O)c5-c5cc3ccc5O)[C@H](O[C@H]3C[C@](C)(NCCCCC)[C@@H](O)[C@H](C)O3)c3ccc(cc3)O4)O[C@H](CO)[C@@H](O)[C@@H]2O)O[C@@H](C)[C@@H]1O [Compound 8] | > 4.0 mg/kg/2 | 2.69 mg/kg/2 | > 4.0 mg/kg/2
4 | CCCCCCCCCCN[C@@]1(C)C[C@H](O[C@H]2[C@H](Oc3c4cc5cc3Oc3ccc(cc3Cl)[C@@H](O)[C@@H](NC(=O)[C@@H](CC(C)C)NC)C(=O)N[C@@H](CC(N)=O)C(=O)N[C@H]5C(=O)N[C@H]3C(=O)N[C@H](C(=O)N[C@H](C(=O)O)c5cc(O)cc(O)c5-c5cc3ccc5O)[C@H](O[C@H]3C[C@](C)(N)[C@@H](O)[C@H](C)O3)c3ccc(cc3)O4)O[C@H](CO)[C@@H](O)[C@@H]2O)O[C@@H](C)[C@@H]1O [Compound 9] | – | 0.68 mg/kg/2 | –
5 | CN[C@H](CC(C)C)C(=O)N[C@H]1C(=O)N[C@@H](CC(N)=O)C(=O)N[C@H]2C(=O)N[C@H]3C(=O)N[C@H](C(=O)N[C@H](C(=O)O)c4cc(O)cc(O)c4-c4cc3ccc4O)[C@H](O[C@H]3C[C@](C)(N)[C@@H](O)[C@H](C)O3)c3ccc(cc3)Oc3cc2cc(c3O[C@@H]2O[C@H](CO)[C@@H](O)[C@H](O)[C@H]2O[C@H]2C[C@](C)(NCc3ccc(Cl)cc3)[C@@H](O)[C@H](C)O2)Oc2ccc(cc2Cl)[C@H]1O [Compound 20] | 0.23 mg/kg/2 | 0.15 mg/kg/2 | > 2.0 mg/kg/2
6 | CN[C@H](CC(C)C)C(=O)N[C@H]1C(=O)N[C@@H](CC(N)=O)C(=O)N[C@H]2C(=O)N[C@H]3C(=O)N[C@H](C(=O)N[C@H](C(=O)O)c4cc(O)cc(O)c4-c4cc3ccc4O)[C@H](O[C@H]3C[C@](C)(NCCc4ccccc4)[C@@H](O)[C@H](C)O3)c3ccc(cc3)Oc3cc2cc(c3O[C@@H]2O[C@H](CO)[C@@H](O)[C@H](O)[C@H]2O[C@H]2C[C@](C)(N)[C@@H](O)[C@H](C)O2)Oc2ccc(cc2Cl)[C@H]1O [Compound 25] | 0.76 mg/kg/2 | 0.50 mg/kg/2 | > 1.0 mg/kg/2
7 | CN[C@H](CC(C)C)C(=O)N[C@H]1C(=O)N[C@@H](CC(N)=O)C(=O)N[C@H]2C(=O)N[C@H]3C(=O)N[C@H](C(=O)N[C@H](C(=O)O)c4cc(O)cc(O)c4-c4cc3ccc4O)[C@H](O[C@H]3C[C@](C)(N)[C@@H](O)[C@H](C)O3)c3ccc(cc3)Oc3cc2cc(c3O[C@@H]2O[C@H](CO)[C@@H](O)[C@H](O)[C@H]2O[C@H]2C[C@](C)(NCC(c3ccccc3)c3ccccc3)[C@@H](O)[C@H](C)O2)Oc2ccc(cc2Cl)[C@H]1O [Compound 26] | 0.47 mg/kg/2 | 0.48 mg/kg/2 | > 3.0 mg/kg/2
8 | CCCCCN[C@@]1(C)C[C@H](O[C@H]2[C@H](Oc3c4cc5cc3Oc3ccc(cc3Cl)[C@@H](O[C@H]3C[C@](C)(N)[C@@H](O)[C@H](C)O3)[C@@H]3NC(=O)[C@H](NC(=O)[C@@H]5NC(=O)[C@H](CC(N)=O)NC(=O)[C@H](NC(=O)[C@@H](CC(C)C)N(C)CCCCC)[C@H](O)c5ccc(c(Cl)c5)O4)c4ccc(O)c(c4)-c4c(O)cc(O)cc4[C@@H](C(=O)O)NC3=O)O[C@H](CO)[C@@H](O)[C@@H]2O)O[C@@H](C)[C@@H]1O [Compound 36] | 0.29 mg/kg/2 | 0.38 mg/kg/2 | 1.0 mg/kg/2
9 | CCCCCN[C@@]1(C)C[C@H](O[C@H]2[C@H](Oc3c4cc5cc3Oc3ccc(cc3Cl)[C@@H](O[C@H]3C[C@](C)(NCCCCC)[C@@H](O)[C@H](C)O3)[C@@H]3NC(=O)[C@H](NC(=O)[C@@H]5NC(=O)[C@H](CC(N)=O)NC(=O)[C@H](NC(=O)[C@@H](CC(C)C)N(C)CCCCC)[C@H](O)c5ccc(c(Cl)c5)O4)c4ccc(O)c(c4)-c4c(O)cc(O)cc4[C@@H](C(=O)O)NC3=O)O[C@H](CO)[C@@H](O)[C@@H]2O)O[C@@H](C)[C@@H]1O [Compound 37] | 0.88 mg/kg/2 | 1.09 mg/kg/2 | > 5.0 mg/kg/2
10 | CCCCCCCCN(C)[C@H](CC(C)C)C(=O)N[C@H]1C(=O)N[C@@H](CC(N)=O)C(=O)N[C@H]2C(=O)N[C@H]3C(=O)N[C@H](C(=O)N[C@H](C(=O)O)c4cc(O)cc(O)c4-c4cc3ccc4O)[C@H](O[C@H]3C[C@](C)(N)[C@@H](O)[C@H](C)O3)c3ccc(c(Cl)c3)Oc3cc2cc(c3O[C@@H]2O[C@H](CO)[C@@H](O)[C@H](O)[C@H]2O[C@H]2C[C@](C)(N)[C@@H](O)[C@H](C)O2)Oc2ccc(cc2Cl)[C@H]1O [Compound 39] | 0.34 mg/kg/2 | 0.18 mg/kg/2 | 1.22 mg/kg/2
11 | CCCCCCCCN[C@@]1(C)C[C@H](O[C@H]2[C@H](Oc3c4cc5cc3Oc3ccc(cc3Cl)[C@@H](O[C@H]3C[C@](C)(NCCCCCCCC)[C@@H](O)[C@H](C)O3)[C@@H]3NC(=O)[C@H](NC(=O)[C@@H]5NC(=O)[C@H](CC(N)=O)NC(=O)[C@H](NC(=O)[C@@H](CC(C)C)NC)[C@H](O)c5ccc(c(Cl)c5)O4)c4ccc(O)c(c4)-c4c(O)cc(O)cc4[C@@H](C(=O)O)NC3=O)O[C@H](CO)[C@@H](O)[C@@H]2O)O[C@@H](C)[C@@H]1O [Compound 41] | 0.32 mg/kg/2 | 0.18 mg/kg/2 | 1.22 mg/kg/2
12 | CN[C@H](CC(C)C)C(=O)N[C@H]1C(=O)N[C@@H](CC(N)=O)C(=O)N[C@H]2C(=O)N[C@H]3C(=O)N[C@H](C(=O)N[C@H](C(=O)O)c4cc(O)cc(O)c4-c4cc3ccc4O)[C@H](O[C@H]3C[C@](C)(NCCc4ccccc4)[C@@H](O)[C@H](C)O3)c3ccc(c(Cl)c3)Oc3cc2cc(c3O[C@@H]2O[C@H](CO)[C@@H](O)[C@H](O)[C@H]2O[C@H]2C[C@](C)(N)[C@@H](O)[C@H](C)O2)Oc2ccc(cc2Cl)[C@H]1O [Compound 44] | 0.2 mg/kg/2 | 0.125 mg/kg/2 | 0.3 mg/kg/2
13 | CNC(CC(C)C)C(=O)NC1C(=O)NC(CC(N)=O)C(=O)NC2C(=O)NC3C(=O)NC(C(=O)NC(C(=O)O)c4cc(O)cc(O)c4-c4cc3ccc4O)C(OC3CC(C)(NCC(c4ccccc4)c4ccccc4)C(O)C(C)O3)c3ccc(c(Cl)c3)Oc3cc2cc(c3OC2OC(CO)C(O)C(O)C2OC2CC(C)(N)C(O)C(C)O2)Oc2ccc(cc2Cl)C1O (stereo not shown) [Compound 46] | 0.22 mg/kg/2 | 0.14 mg/kg/2 | 0.75 mg/kg/2
14 | CNC(CC(C)C)C(=O)NC1C(=O)NC(CC(N)=O)C(=O)NC2C(=O)NC3C(=O)NC(C(=O)NC(C(=O)O)c4cc(O)cc(O)c4-c4cc3ccc4O)C(OC3CC(C)(NCCCc4ccccc4)C(O)C(C)O3)c3ccc(c(Cl)c3)Oc3cc2cc(c3OC2OC(CO)C(O)C(O)C2OC2CC(C)(NCCCc3ccccc3)C(O)C(C)O2)Oc2ccc(cc2Cl)C1O (stereo not shown) [Compound 50] | 1.02 mg/kg/2 | 0.6 mg/kg/2 | > 5.0 mg/kg/2
15 | CC(C)CC(C(=O)NC1C(=O)NC(CC(N)=O)C(=O)NC2C(=O)NC3C(=O)NC(C(=O)NC(C(=O)O)c4cc(O)cc(O)c4-c4cc3ccc4O)C(OC3CC(C)(N)C(O)C(C)O3)c3ccc(c(Cl)c3)Oc3cc2cc(c3OC2OC(CO)C(O)C(O)C2OC2CC(C)(N)C(O)C(C)O2)Oc2ccc(cc2Cl)C1O)N(C)Cc1ccccc1 (stereo not shown) [Compound 52] | 0.75 mg/kg/2 | 0.5 mg/kg/2 | –
16 | CNC(CC(C)C)C(=O)NC1C(=O)NC(CC(N)=O)C(=O)NC2C(=O)NC3C(=O)NC(C(=O)NC(C(=O)O)c4cc(O)cc(O)c4-c4cc3ccc4O)C(OC3CC(C)(NCc4ccccc4)C(O)C(C)O3)c3ccc(c(Cl)c3)Oc3cc2cc(c3OC2OC(CO)C(O)C(O)C2OC2CC(C)(NCc3ccccc3)C(O)C(C)O2)Oc2ccc(cc2Cl)C1O (stereo not shown) [Compound 53] | 0.18 mg/kg/2 | 0.2 mg/kg/2 | 1.25 mg/kg/2
17 | CCN(CC)c1ccc(CNC2(C)CC(OC3c4ccc(c(Cl)c4)Oc4cc5cc(c4OC4OC(CO)C(O)C(O)C4OC4CC(C)(NCc6ccc(N(CC)CC)cc6)C(O)C(C)O4)Oc4ccc(cc4Cl)C(O)C(NC(=O)C(CC(C)C)NC)C(=O)NC(CC(N)=O)C(=O)NC5C(=O)NC4C(=O)NC3C(=O)NC(C(=O)O)c3cc(O)cc(O)c3-c3cc4ccc3O)OC(C)C2O)cc1 (stereo not shown) [Compound 57] | – | < 0.62 mg/kg/2 | –
18 | CNC(CC(C)C)C(=O)NC1C(=O)NC(CC(N)=O)C(=O)NC2C(=O)NC3C(=O)NC(C(=O)NC(C(=O)O)c4cc(O)cc(O)c4-c4cc3ccc4O)C(OC3CC(C)(NCc4ccc(Br)cc4)C(O)C(C)O3)c3ccc(c(Cl)c3)Oc3cc2cc(c3OC2OC(CO)C(O)C(O)C2OC2CC(C)(NCc3ccc(Br)cc3)C(O)C(C)O2)Oc2ccc(cc2Cl)C1O (stereo not shown) [Compound 59] | < 0.31 mg/kg/2 | 0.25 mg/kg/2 | 3.16 mg/kg/2
